Assay results: patent US6380156B1, “Total synthesis of the amino hip analogue of didemnin A” (The Board of Trustees of the University of Illnois, priority 1996, dated 2002)
Numbered stars: 1 amine (or outer) side, 2 acyl side, 3 side chain; on linkers, the order of the positions; unused ones are H or OH. Bridge positions count the residues as written; N and C are the ends. Square brackets hold non-standard residues; d marks the D form. Peptide text beside a SMILES is read from it. * marks the point of attachment. X1 = CC[C@H](C)[C@@H](N[*:1])[C@@H](O)CC(=O)[*:2]; X2 = CC(C)[C@H](N[*:1])C(=O)[C@H](C)C(=O)[*:2]; NMeY = CN[C@@H](Cc1ccc(O)cc1)C(=O)O; dNMeL = CN[C@H](CC(C)C)C(=O)O; Cbz = O=C(OCc1ccccc1)*

What was measured:
[1] = tested on: CV-1; experiment: Cytotoxicity in the HSV/CV-1 antiviral test; details: scale 0-least toxic to 16 (toxic)
[2] = tested on: HSV; experiment: Antiviral activity, HSV/CV-1; format: cell-based; design: key: +++ complete inhibition; ++ strong inhibition; + moderate inhibition; − no inhibition
[3] = tested on: DNA and RNA viruses; details: cited from earlier work
[4] = biological target: elongation factor 1α (EF-1α) (Homo sapiens, UniProt P68104); details: GTP-dependent; cited from earlier work
[5] = tested on: Nb2 node lymphoma cells; details: cited from earlier work
[6] = in vitro; cited from earlier work

Sequence of elongation factor 1α (EF-1α) (P68104 whole entry): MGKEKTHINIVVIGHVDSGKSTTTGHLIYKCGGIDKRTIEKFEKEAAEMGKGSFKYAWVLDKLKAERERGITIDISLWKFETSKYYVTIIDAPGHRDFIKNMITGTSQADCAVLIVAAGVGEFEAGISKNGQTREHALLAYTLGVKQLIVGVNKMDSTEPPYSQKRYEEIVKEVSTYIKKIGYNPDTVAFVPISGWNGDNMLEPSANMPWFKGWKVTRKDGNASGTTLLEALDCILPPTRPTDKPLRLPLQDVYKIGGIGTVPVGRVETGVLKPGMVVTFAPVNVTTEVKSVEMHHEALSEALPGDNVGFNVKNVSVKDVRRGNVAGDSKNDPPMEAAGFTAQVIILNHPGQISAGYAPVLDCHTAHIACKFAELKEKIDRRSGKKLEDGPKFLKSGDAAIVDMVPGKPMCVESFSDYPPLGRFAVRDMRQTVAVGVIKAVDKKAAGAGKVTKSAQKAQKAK

| Molecule | HSV/CV-1 Cytotoxicity ([1]; 10 ng/mL) | HSV/CV-1 Cytotoxicity ([1]; 20 ng/mL) | HSV/CV-1 Cytotoxicity ([1]; 50 ng/mL) | HSV/CV-1 Cytotoxicity ([1]; 100 ng/mL) | HSV/CV-1 Activity (antiviral) ([2]; 10 ng/mL) | HSV/CV-1 Activity (antiviral) ([2]; 20 ng/mL) | HSV/CV-1 Activity (antiviral) ([2]; 50 ng/mL) | HSV/CV-1 Activity (antiviral) ([2]; 100 ng/mL) | antiviral activity against DNA and RNA viruses [3] | binding to elongation factor 1α (EF-1α) [4] | binding to a site on Nb2 node lymphoma cells [5] | cytotoxicity relative to didemnin A [6] |
| --- | --- | --- | --- | --- | --- | --- | --- | --- | --- | --- | --- | --- |
| CC[C@H](C)[C@H]1NC(=O)[C@@H](NC(=O)[C@@H](CC(C)C)N(C)C(=O)OCc2ccccc2)[C@@H](C)OC(=O)[C@H](Cc2ccc(OC)cc2)N(C)C(=O)[C@@H]2CCCN2C(=O)[C@H](CC(C)C)NC(=O)[C@@H](C)C(=O)[C@H](C(C)C)NC(=O)C[C@@H]1O [Cbz-[Aip^3]-Didemnin A] (Cbz-[dNMeL]T[X1][X2]LP[NMeY](Me); ester 2-C) | 0 | 0 | 8 | 10 | − | + | + | + |  |  |  |  |
| Didemnin A [Didemnin A (1)] | 0 | 0 | 0 | 0 | − | + | + | + | exhibit antiviral activity | binds elongation factor 1α (EF-1α) in a GTP-dependent manner |  |  |
| Didemnin B |  |  |  |  |  |  |  |  | exhibit antiviral activity |  | binds to a site on Nb2 node lymphoma cells | approximately twenty times more cytotoxic than didemnin A |
